# Experimental data published in patent US20090304810A1, “Composition and method for enhanced sanitation and oxidation of aqueous systems” (priority 2005, published 2009).
# Tests used:
# [1] = test system: planktonic algae; assay: Algae destruction in outdoor pool; type: cell-based; settings: same pool system, opening procedure, 500 lbs
# Experimental: In an outdoor 360,000 gallon pool contaminated with planktonic algae, 200 lbs of the cobalt monopersulfate composition comprising 99.3 wt % Potassium monopersulfate, 0.5 wt % Magnesium Carbonate, and 0.2 wt % Cobalt Acetate as previously disclosed was added to the system by broadcasting. 40 pounds of soda ash was added to neutralize excess acidity, and the ORP controller was set at 780 mV.
# The ORP was consistently achieving 780 mV with 2.0-2.5 ppm of free chlorine.
# For comparison purposes, the same pool system during the opening procedure was treated with 500 lbs of calcium hypochlorite and allowed to circulate for 7 days before obtaining the water clarity and being allowed to open to swimmers.
# [2] = Catalyst precipitation; type: physicochemical
# Experimental: 20 grams of potassium monopersulfate, 0.1 grams cuprous chloride and 80 grams distilled water was added to a 250 ml beaker and mixed on a magnetic stirrer until dissolved. 1 gram of solution was carefully measured and diluted with 99 grams of distilled water. The diluted sample was treated with sodium bisulfite to remove residual monopersulfate, the pH was then adjusted to 7.3 using a diluted solution of sodium hydroxide. The resulting clear solution was tested using a HACH Company Method 8506 bicinchoninate-powder pillow test procedure and a DR-2000 spectrophotometer. The resulting copper level was measured and corrected compensate for the dilution. The final result being 4.9 ppm as Cu.
# A second 1-gram sample from the original solution was neutralized with sodium bisulfite, then treated with 2-grams of 0.1 wt % alum solution to achieve approximately 20 ppm as alum in the diluted solution. The pH was adjust with dilute sodium hydroxide to achieve a pH of approximately 7.3, mixed for about 5 minutes, then allowed to settle in a graduated cylinder. 25 ml of clear water was decanted and tested for copper, resulting a value of 0.78 ppm as Cu.
compound,measurement,setting,value
[Ca+2].[O-]Cl.[O-]Cl [calcium hypochlorite],circulation time before obtaining water clarity,[1],7 days
[Cl][Cu] [cuprous chloride],copper level,"[2]; no alum, 1:99 diluted, pH 7.3, monopersulfate removed",4.9 ppm as Cu
alum,copper level in decanted clear water,"[2]; approximately 20 ppm alum, pH approximately 7.3, mixed about 5 minutes, settled",0.78 ppm as Cu
